Compound: Nc1ccn([C@@H]2O[C@H](CO)[C@@H](O)C2(F)F)c(=O)n1 [Gemcitabine] + CC(=O)Nc1cccc(-n2c(=O)n(C3CC3)c(=O)c3c(Nc4ccc(I)cc4F)n(C)c(=O)c(C)c32)c1 [Trametinib] (partner 0.02 µM)
Experiment: relative viability (nuclei count vs DMSO), 5 days (fraction); higher = more cells survive
Outline: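 Lung cancer cell lines were seeded in 1536-well plates and dosed by pin tool the next day, with either a single drug or a fixed anchor-drug dose combined with five library-drug doses (not always all listed) spaced in √10 steps. Five days later, one step fixed the cells and stained their nuclei (final 0.05% Triton X-100, 1% formaldehyde, 1 ug/ml Hoechst), and nuclei were counted on 4× images. Relative viability is the nuclei count in treated wells divided by the count in vehicle wells, and each value is the median of duplicate plates.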

| Cell Line | relative viability (first compound 0.001 µM) | relative viability (first compound 0.003162 µM) | relative viability (first compound 0.01 µM) | relative viability (first compound 0.03162 µM) | relative viability (first compound 0.1 µM) |
| --- | --- | --- | --- | --- | --- |
| NCI-H727 | 0.447 | 0.355 | 0.33 | 0.327 | 0.328 |
| NCI-H838 | 0.51 | 0.621 | 0.561 | 0.274 | 0.127 |
| NCI-H1355 | 0.426 | 0.363 | 0.245 | 0.189 | 0.154 |
| NCI-H1395 | 1.01 | 0.841 | 0.554 | 0.424 | 0.359 |
| NCI-H1437 | 0.523 | 0.611 | 0.384 | 0.241 | 0.164 |
| NCI-H1648 | 0.423 | 0.339 | 0.473 | 0.326 | 0.234 |
| NCI-H1650 | 0.556 | 0.337 | 0.208 | 0.174 | 0.137 |
| NCI-H1651 | 0.828 | 0.813 | 0.826 | 0.185 | 0.114 |
| NCI-H1666 | 0.795 | 0.946 | 0.773 | 0.655 | 0.554 |
| NCI-H1734 | 0.705 | 0.44 | 0.193 | 0.135 | 0.1 |
| NCI-H1755 | 0.759 | 0.749 | 0.736 | 0.616 | 0.328 |
| NCI-H1792 | 0.414 | 0.183 | 0.0715 | 0.0564 | 0.0677 |
| NCI-H1793 | 0.385 | 0.45 | 0.256 | 0.187 | 0.15 |
| NCI-H1915 | 0.317 | 0.308 | 0.286 | 0.281 | 0.188 |
| NCI-H1944 | 0.418 | 0.416 | 0.364 | 0.28 | 0.154 |
| NCI-H1975 | 0.305 | 0.447 | 0.367 | 0.124 | 0.135 |
| NCI-H1993 | 0.508 | 0.457 | 0.503 | 0.351 | 0.438 |
| NCI-H2009 | 0.268 | 0.327 | 0.16 | 0.115 | 0.088 |

| Cell Line | relative viability (first compound 0.001 µM) | relative viability (first compound 0.003162 µM) | relative viability (first compound 0.01 µM) | relative viability (first compound 0.03162 µM) | relative viability (first compound 0.1 µM) |
| --- | --- | --- | --- | --- | --- |
| NCI-H2023 | 0.567 | 0.577 | 0.266 | 0.152 | 0.0796 |
| NCI-H2085 | 0.512 | 0.589 | 0.472 | 0.174 | 0.226 |
| NCI-H2087 | 0.191 | 0.204 | 0.141 | 0.121 | 0.0794 |
| NCI-H2126 | 0.59 | 0.57 | 0.514 | 0.418 | 0.305 |
| NCI-H2170 | 1.02 | 0.907 | 0.785 | 0.167 | 0.109 |
| NCI-H2228 | 0.587 | 0.248 | 0.156 | 0.0861 | 0.111 |
| NCI-H2347 | 0.305 | 0.255 | 0.276 | 0.258 | 0.2 |
| NCI-H2405 | 0.689 | 0.67 | 0.457 | 0.211 | 0.211 |
| NCI-H3122 | 0.219 | 0.237 | 0.174 | 0.141 | 0.0965 |
| PC-3 [JPC-3] | 0.73 | 0.424 | 0.469 | 0.426 | 0.417 |
| PC-14 | 0.885 | 0.279 | 0.037 | 0.0374 | 0.0267 |
| RERF-LC-KJ | 0.893 | 0.827 | 0.845 | 0.386 | 0.24 |
| SK-LU-1 | 0.512 | 0.373 | 0.267 | 0.161 | 0.241 |
| SK-MES-1 | 0.605 | 0.551 | 0.25 | 0.237 | 0.178 |
| SW 900 | 0.722 | 0.609 | 0.119 | 0.142 | 0.13 |
| SW 1573 | 0.46 | 0.405 | 0.117 | 0.0639 | 0.0615 |
| UMC-11 | 0.627 | 0.635 | 0.716 | 0.609 | 0.161 |
